This note sets out measurements from patent publication US20130116195A1, “Binding ligand linked drug delivery conjugates of tubulysins” (priority 2009, published 2013).

In this assay the target is T1, folate receptors (FRs) on KB cells (Homo sapiens, UniProt P15328).
T1 construct: FR-positive KB cells were heavily seeded into 24-well cell culture plates; endogenous in cells; host or cells: KB cells
The assay is described as follows: Relative Affinity Assay (displacement of 3H-folic acid). In kind it is binding. Conditions: 10% serum/FDRPMI; folic acid set to 1. Here is the method:
METHOD: Relative Affinity Assay. The affinity for folate receptors (FRs) relative to folate was determined according to a previously described method (Westerhof, G. R., J. H. Schornagel, et al. (1995) Mol. Pharm. 48: 459-471) with slight modification. Briefly, FR-positive KB cells were heavily seeded into 24-well cell culture plates and allowed to adhere to the plastic for 18 h. Spent incubation media was replaced in designated wells with folate-free RPMI (FFRPMI) supplemented with 100 nM ^3H-folic acid in the absence and presence of increasing concentrations of test article or folic acid. Cells were incubated for 60 min at 37° C. and then rinsed 3 times with PBS, pH 7.4. Five hundred microliters of 1% SDS in PBS, pH 7.4, were added per well. Cell lysates were then collected and added to individual vials containing 5 mL of scintillation cocktail, and then counted for radioactivity. Negative control tubes contained only the ^3H-folic acid in FFRPMI (no competitor). Positive control tubes contained a final concentration of 1 mM folic acid, and CPMs measured in these samples (representing non-specific binding of label) were subtracted from all samples.
Background: Displacement assays read how much labelled ligand stays bound in the presence of the test substance.

T1 sequence (P15328 25-234): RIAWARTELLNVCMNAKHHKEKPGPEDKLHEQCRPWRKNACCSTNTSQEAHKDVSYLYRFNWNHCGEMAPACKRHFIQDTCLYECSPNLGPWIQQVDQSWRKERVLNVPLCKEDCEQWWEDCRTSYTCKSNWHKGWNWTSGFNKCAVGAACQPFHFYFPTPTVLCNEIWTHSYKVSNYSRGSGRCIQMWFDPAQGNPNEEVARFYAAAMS

Turning to `Nc1nc2ncc(CNc3ccc(C(=O)N[C@@H](CCC(=O)O)C(=O)O)cc3)nc2c(=O)[nH]1` [folic acid], the relative affinity was 1.
